Assay results from PubChem BioAssay AID743339 (Broad Institute, 2014).
Calls of active or inactive are those of the source.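 Rule for the calls: active = activation curve crossing 200% at or below the highest valid dose tested for that sample; inconclusive = flat curve with activation between 30 and 70%, or poor fit; inactive = the rest, including signal falling instead of rising.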

What follows are molecules tested against Leucyl-cystinyl aminopeptidase (Mus musculus) (UniProt Q8C129) (assay: activation of mouse IRAP aminopeptidase activity – biochemical, Leu-AMC fluorescence, cherry-picked samples, selectivity assay for ERAP1 modulator project, dose response (AID 743339)). Conditions: purified IRAP, Leu-AMC cleavage fluorescence, 1 h.
Sequence of Leucyl-cystinyl aminopeptidase (Mus musculus) (Q8C129 whole entry, looked up): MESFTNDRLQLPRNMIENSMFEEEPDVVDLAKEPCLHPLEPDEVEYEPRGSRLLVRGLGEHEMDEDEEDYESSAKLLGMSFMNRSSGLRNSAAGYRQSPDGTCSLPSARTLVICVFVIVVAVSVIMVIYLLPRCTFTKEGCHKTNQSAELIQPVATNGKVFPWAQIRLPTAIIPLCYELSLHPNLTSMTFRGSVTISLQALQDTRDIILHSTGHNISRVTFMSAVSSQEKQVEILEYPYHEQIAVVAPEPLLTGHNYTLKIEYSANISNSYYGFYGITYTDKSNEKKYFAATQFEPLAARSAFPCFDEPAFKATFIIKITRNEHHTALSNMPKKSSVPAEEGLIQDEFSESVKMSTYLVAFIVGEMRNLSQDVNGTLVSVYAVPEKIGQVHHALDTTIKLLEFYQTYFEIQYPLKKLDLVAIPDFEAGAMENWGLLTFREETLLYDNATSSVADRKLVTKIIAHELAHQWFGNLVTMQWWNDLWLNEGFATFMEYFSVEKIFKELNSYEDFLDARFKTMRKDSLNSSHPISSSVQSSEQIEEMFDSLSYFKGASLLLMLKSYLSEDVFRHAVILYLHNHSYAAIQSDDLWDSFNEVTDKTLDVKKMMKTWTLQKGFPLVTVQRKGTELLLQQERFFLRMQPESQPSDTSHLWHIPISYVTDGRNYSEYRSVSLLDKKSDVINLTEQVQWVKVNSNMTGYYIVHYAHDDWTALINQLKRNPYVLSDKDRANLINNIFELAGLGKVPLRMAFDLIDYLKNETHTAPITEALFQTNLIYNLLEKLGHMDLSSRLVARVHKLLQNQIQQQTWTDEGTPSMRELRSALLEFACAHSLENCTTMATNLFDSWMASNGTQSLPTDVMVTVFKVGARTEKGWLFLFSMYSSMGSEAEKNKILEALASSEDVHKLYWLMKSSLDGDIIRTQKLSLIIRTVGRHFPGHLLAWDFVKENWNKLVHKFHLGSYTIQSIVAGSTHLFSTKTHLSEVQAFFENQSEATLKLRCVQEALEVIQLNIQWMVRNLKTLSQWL

| SMILES | AC200 |
| --- | --- |
| Cc1c(C)c2ccc(O)c(CN3CCN(C)CC3)c2oc1=O | 1510 nM |
| COC(=O)[C@@H]1[C@@H](CO)[C@@H]2Cn3c(ccc(/C=C/c4ccccc4)c3=O)[C@H]1N2C(=O)C1CCC1 | 1080 nM |
| CCNC(=O)[C@H]1[C@H](CO)[C@H]2Cn3c(ccc(/C=C/c4ccccc4)c3=O)[C@@H]1N2C(=O)C1CCCC1 | 675 nM |
| Cc1cc(=O)oc2c(CN3CCCC3)c(O)c(Cl)cc12 | 673 nM |
| Cc1cc(=O)oc2c(CN3CCN(CCO)CC3)c(O)ccc12 | 1450 nM |
| COCC(=O)N1[C@@H]2Cn3c(ccc(/C=C/c4ccccc4)c3=O)[C@H]1[C@@H](C(=O)N1CCOCC1)[C@@H]2CO | 757 nM |
| Cc1c(-c2ccccc2)c(=O)oc2cc(O)ccc12 | 1240 nM |
| O=c1ccc2cc(O)c(O)cc2o1 | 2120 nM |
| CCc1cc(=O)oc2c(CNCc3c(F)cccc3Cl)c(O)ccc12 | 832 nM |
| CCC(=O)N1[C@@H]2c3ccc(/C=C/c4ccccc4)c(=O)n3C[C@H]1[C@H](CO)[C@H]2C(=O)N(C)C | 872 nM |
| COc1ccc(CNCc2c(O)c(Cl)cc3c(C)c(C)c(=O)oc23)c(OC)c1 | 493 nM |
| O=c1ccc2cc(OC3O[C@H](CO)[C@@H](O)[C@H](O)[C@H]3O)c(O)cc2o1 (stereo partly specified) | 346 nM |
| COC(=O)Cc1c(C)c2ccc(O)c(CNCc3ccc(OC)c(OC)c3)c2oc1=O | 535 nM |
| CC(=O)Oc1cc2oc(=O)cc(C)c2cc1Cl | 507 nM |
| Cc1cc(=O)oc2c(CN3CCN(C)CC3)c(O)c(Cl)cc12 | 634 nM |
| COc1ccc(-c2cc3ccc(O)cc3oc2=O)cc1 | 398 nM |
| O=C(NCC1CC1)[C@H]1[C@H](CO)[C@H]2Cn3c(ccc(/C=C/c4ccccc4)c3=O)[C@@H]1N2C(=O)C1CC1 | 927 nM |
| CCCN1[C@@H]2c3ccc(/C=C/c4ccccc4)c(=O)n3C[C@H]1[C@H](CO)[C@H]2C(=O)NCc1ccccn1 | 1000 nM |
| CCc1cc(=O)oc2c(CN3CCN(C)CC3)c(O)ccc12 | 1540 nM |
| COc1cc2ccc(=O)oc2cc1O | 348 nM |
| CCN(CC)Cc1c(O)ccc2cc(-c3nc4ccccc4n3C)c(=O)oc12 | 229 nM |
| COCCCn1c(C(=O)N2CCOCC2)cc2c(=O)n3ccccc3nc21 | > 2600 nM (inactive) |
| O=S(=O)(O)c1ccc(N2N=C(c3ccccc3)CC2c2ccccc2)cc1 (stereo unspecified) | 1010 nM |
| COc1ccc(C2=NN(c3ccc(C(=O)O)cc3)C(c3ccc(OC)c(OC)c3)C2)cc1 (stereo unspecified) | 824 nM |
| O=c1cc(CN2CCOCC2)c2cc(Cl)c(O)cc2o1 | 1100 nM |
| CCCN1[C@@H]2Cn3c(ccc(/C=C/c4ccccc4)c3=O)[C@H]1[C@@H](C(=O)NCc1ccccn1)[C@@H]2CO | 992 nM |
| N#Cc1c(N)n(CCNC(=O)c2ccccc2)c2nc3ccccc3nc12 | > 2600 nM (inactive) |
| O=c1oc2c(CN3CCN(CCO)CC3)c(O)ccc2cc1-c1ccccn1 | 275 nM |
| CN(C)Cc1c(O)ccc2cc(-c3nc4ccccc4n3C)c(=O)oc12 | 202 nM |

Same assay, conditions: purified IRAP, Leu-AMC cleavage fluorescence, 1 h; at 5.6 µM (top of the series)

| SMILES | activation |
| --- | --- |
| C[C@@H]1CCCCO[C@@H](CN(C)Cc2ccccc2)[C@@H](C)CN([C@H](C)CO)C(=O)c2cc(NS(=O)(=O)c3cccs3)ccc2O1 | 16.2% (inactive) |
| C[C@@H]1CCCCO[C@@H](CN(C)Cc2ccc3c(c2)OCO3)[C@@H](C)CN([C@@H](C)CO)C(=O)c2cc(NS(=O)(=O)c3ccccc3)ccc2O1 | 7.88% (inactive) |
| COc1ccc(S(=O)(=O)N(C)C[C@@H]2Oc3ncccc3C(=O)N([C@H](C)CO)C[C@@H]2C)cc1 | 9.5% (inactive) |

Same assay, conditions: purified IRAP, Leu-AMC cleavage fluorescence, 1 h; at 10 µM (top of the series)

| SMILES | activation |
| --- | --- |
| Cc1noc(C)c1S(=O)(=O)Nc1ccc2c(c1)C(=O)N([C@H](C)CO)C[C@H](C)[C@H](CN(C)Cc1ccc3c(c1)OCO3)OCCCC[C@@H](C)O2 | -18.4% (inactive) |
| CCCN(C)C[C@@H]1OCCCC[C@@H](C)Oc2ccc(NS(=O)(=O)c3c(C)noc3C)cc2C(=O)N([C@H](C)CO)C[C@@H]1C | -22.5% (inactive) |
| CCCN(C)C[C@@H]1OCCCC[C@@H](C)Oc2ccc(NS(=O)(=O)c3ccc(C)cc3)cc2C(=O)N([C@H](C)CO)C[C@@H]1C | -8.1% (inactive) |
| Cc1noc(C)c1S(=O)(=O)N(C)C[C@@H]1OCCCC[C@@H](C)Oc2ccc(NS(=O)(=O)c3cccs3)cc2C(=O)N([C@@H](C)CO)C[C@@H]1C | -12.6% (inactive) |
